Results: ChEMBL document CHEMBL2029335, “Synthesis, X-ray analysis, and biological evaluation of a new class of stereopure lactam-based HIV-1 protease inhibitors” (J Med Chem, 2012)

Columns and labels:
[1] = target: Protease (Human immunodeficiency virus 1, UniProt Q9YQ12); assay: Inhibition of HIV1 protease expressed in Escherichia coli using DABCYL-Abu-Ser-Gln-ASN-Tyr-Pro-Ile-Val-Gln-EDANS as substrate preincubated for 20 mins measured for 45 mins by fluorometry
[2] = test system: Human immunodeficiency virus 1; assay: Antiviral activity against HIV1 infected in human MT4 cells; assay type: functional, organism-based; details: Human immunodeficiency virus 1, MT4
[3] = test system: MT4; assay: Cytotoxicity against human MT4 cells after 5 days by XTT assay; assay type: cell-based; details: mt4, 120 h
[4] = test system: Liver microsomes; assay: (§1) Intrinsic clearance in human liver microsomes at 1 uM after 30 mins by LC-MS/MS analysis; assay type: ADME, Microsome; details: microsomes, 0.5 h, 1 µM
[5] = test system: Caco-2; assay: Apparent permeability from apical to basolateral side in human Caco2 cells after 60 mins; assay type: ADME, cell-based; details: caco-2, 1 h
[6] = as §1; assay type: ADME, Microsome; details: liver microsomes, read-out: CLH

Chain of Protease (Q9YQ12 whole entry): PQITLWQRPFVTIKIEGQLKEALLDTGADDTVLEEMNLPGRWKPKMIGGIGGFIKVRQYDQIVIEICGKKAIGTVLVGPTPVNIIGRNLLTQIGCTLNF

Structure (SMILES) | Ki [1] [nM] | EC50 [2] [nM] | CC50 [3] [µM] | CLH [4] [µL/min/mg] | Papp [5] [×10⁻⁶ cm/s] | microsomal CLint at 1 µM [6] [µL/min/mg]
COC(=O)N[C@H](C(=O)NN(CC[C@@]1(Cc2ccccc2)C(=O)N([C@H]2c3ccccc3C[C@H]2O[Si](C)(C)C(C)(C)C)C[C@H]1O[Si](C)(C)C(C)(C)C)Cc1ccc(Br)cc1)C(C)(C)C | 760 | > 10000 | > 50 | – | – | –
COC(=O)N[C@H](C(=O)NN(CC[C@@]1(Cc2ccccc2)C(=O)N([C@H]2c3ccccc3C[C@H]2O[Si](C)(C)C(C)(C)C)C[C@@H]1O[Si](C)(C)C(C)(C)C)Cc1ccc(Br)cc1)C(C)(C)C | 800 | > 10000 | – | – | – | –
COC(=O)N[C@H](C(=O)NN(CC[C@@]1(Cc2ccccc2)C(=O)N([C@H]2c3ccccc3C[C@H]2O)C[C@H]1O)Cc1ccc(Br)cc1)C(C)(C)C | 2.1 | 640 | > 50 | > 300 | – | –
COC(=O)N[C@H](C(=O)NN(CC[C@]1(Cc2ccccc2)C(=O)N([C@H]2c3ccccc3C[C@H]2O)C[C@H]1O)Cc1ccc(Br)cc1)C(C)(C)C | 1200 | > 10000 | 15 | – | – | –
COC(=O)N[C@H](C(=O)NN(CC[C@]1(Cc2ccccc2)C(=O)N([C@H]2c3ccccc3C[C@H]2O)C[C@@H]1O)Cc1ccc(Br)cc1)C(C)(C)C | 940 | > 10000 | – | – | – | –
COC(=O)N[C@H](C(=O)NN(CC[C@@]1(Cc2ccccc2)C(=O)N([C@H]2c3ccccc3C[C@H]2O)C[C@@H]1O)Cc1ccc(Br)cc1)C(C)(C)C | 6.4 | 350 | – | – | 17 | –
COC(=O)N[C@H](C(=O)NN(CC[C@@]1(Cc2ccccc2)C(=O)N([C@H]2c3ccccc3C[C@H]2O)C[C@H]1O)Cc1ccc(-c2ccccn2)cc1)C(C)(C)C | 1.7 | 190 | 28 | – | – | –
COC(=O)N[C@H](C(=O)NN(CC[C@@]1(Cc2ccccc2)C(=O)N([C@H]2c3ccccc3C[C@H]2O)C[C@@H]1O)Cc1ccc(-c2ccccn2)cc1)C(C)(C)C | 2 | 180 | > 50 | – | – | –
COC(=O)N[C@H](C(=O)NN(CC[C@@]1(Cc2ccccc2)C(=O)N([C@H]2c3ccccc3C[C@H]2O)C[C@H]1O)Cc1ccc(-c2cccnc2)cc1)C(C)(C)C | 0.8 | 40 | > 50 | 230 | 3.8 | –
COC(=O)N[C@H](C(=O)NN(CC[C@@]1(Cc2ccccc2)C(=O)N([C@H]2c3ccccc3C[C@H]2O)C[C@@H]1O)Cc1ccc(-c2cccnc2)cc1)C(C)(C)C | 0.7 | 100 | – | 120 | 5.1 | –
COC(=O)N[C@H](C(=O)NN(CC[C@@]1(Cc2ccccc2)C(=O)N([C@H]2c3ccccc3C[C@H]2O)C[C@H]1O)Cc1ccc(-c2ccncc2)cc1)C(C)(C)C | 0.4 | 40 | > 50 | – | – | –
COC(=O)N[C@H](C(=O)NN(CC[C@@]1(Cc2ccccc2)C(=O)N([C@H]2c3ccccc3C[C@H]2O)C[C@@H]1O)Cc1ccc(-c2ccncc2)cc1)C(C)(C)C | 1.7 | 96 | – | – | – | –
COC(=O)N[C@H](C(=O)NN(CCC[C@@]1(Cc2ccccc2)C(=O)N([C@H]2c3ccccc3C[C@H]2O)C[C@H]1O)Cc1ccc(Br)cc1)C(C)(C)C | 13 | 3900 | 26 | > 300 | 22 | –
COC(=O)N[C@H](C(=O)NN(CCC[C@@]1(Cc2ccccc2)C(=O)N([C@H]2c3ccccc3C[C@H]2O)C[C@H]1O)Cc1ccc(-c2ccccc2)cc1)C(C)(C)C | 12 | 850 | 15 | – | – | –
COC(=O)N[C@H](C(=O)NN(CCC[C@@]1(Cc2ccccc2)C(=O)N([C@H]2c3ccccc3C[C@H]2O)C[C@H]1O)Cc1ccc(-c2cccnc2)cc1)C(C)(C)C | 5.3 | 1800 | 23 | 122 | 4.4 | –
COC(=O)N[C@H](C(=O)NN(CCC[C@@]1(Cc2ccccc2)C(=O)N([C@H]2c3ccccc3C[C@H]2O)C[C@H]1O)Cc1ccc(-c2ccncc2)cc1)C(C)(C)C | – | 700 | 5.9 | – | – | –
COC(=O)N[C@H](C(=O)NN(CCC[C@@]1(Cc2ccccc2)C(=O)N([C@H]2c3ccccc3C[C@H]2O)C[C@H]1O)Cc1ccc(-c2ccccn2)cc1)C(C)(C)C | 6.3 | 2500 | 31 | 130 | 3.4 | –
COC(=O)N[C@H](C(=O)NN(CCC1(Cc2ccccc2)C(=O)N([C@H]2c3ccccc3C[C@H]2O)CC1O)Cc1ccc(-c2ccncc2)cc1)C(C)(C)C (stereo not given in full) | 0.8 | – | – | – | – | –
COC(=O)N[C@H](C(=O)N[C@@H](Cc1ccccc1)[C@@H](O)CN(Cc1ccc(-c2ccccn2)cc1)NC(=O)[C@@H](NC(=O)OC)C(C)(C)C)C(C)(C)C [ATAZANAVIR] | – | 3.9 | – | – | – | 90
